# Tests used:
# [1] = system: NIH-3T3 TrkB-expressing cell line; assay: CellTox Green cytotoxicity assay in NIH-3T3 cells stable transfected with TrkB under serum deprivation; format: cell-based; details: compound 1 μM, 24 h, after 24 h serum starvation; BDNF 500 ng/mL as control
# Method in brief: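 TrkB-transfected NIH-3T3 cells were serum-starved for 24 h, then exposed 24 h to compounds at 1 μM or BDNF 500 ng/mL as control. Dead cells stained with CellTox Green and total cells with Hoechst 33342, imaged by microscopy. CellTox-positive counts normalised to total cells per image.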
# [2] = molecular target: T1, CYP2C9 (Homo sapiens, UniProt P11712); assay: Isozyme-specific CYP450 inhibition, CYP2C9; format: in vitro ADME; details: 1 μM, 60 min, recombinant human CYP450 (Baculosomes)
# T1 construct: purchased Thermo Fisher Scientific; host or cells: Baculosomes
# Method: Human cytochrome P450 (CYP450) isoenzymes were expressed in Baculosomes®, purchased from Thermo Fisher Scientific (Waltham, MA, USA). All reagents were handled and prepared according to the manufacturer's protocol. Test compounds were assessed at 1 μM for their effects on CYP1A2, CYP2A6, CYP2C9, CYP2C19, CYP2D6, and CYP3A4. Approximately 1 μM was selected based on our ADMET standard operating procedures and protocols also published previously (Rogdakis et al., [2022]; Yilmaz et al., [2022]). CYP450-enzymatic activity was determined based on the kinetic model for each CYP450 isoform (Cohen et al., [2003]; Veith et al., [2009]). Reactions took place in triplicates at 20°C. For this, NADP^+ (10 mM in 100 mM potassium phosphate, pH 8.0) was converted into NADPH by the regeneration system present (glucose-6-phosphate at 333 mM and glucose-6-phosphate-dehydrogenase at 30 U/mL in 100 mM potassium phosphate, pH 8.0). Following the addition of the fluorescent substrate, signal monitoring over time took place immediately (<2 min) at suitable excitation and emission wavelengths (Agilent BioTek Lionheart FX). CYP450 inhibition (%) was determined based on the reaction rates (fluorescence intensity changes per unit time). In total, n = 60 measurements […] were acquired (t = 60 min).
# % Inhibition=(1-X/A)×100%
# X is the rate observed in the presence of the test compound.
# A is the rate observed in the presence of the negative (solvent, DMSO) control.
# T1 sequence (P11712 whole entry): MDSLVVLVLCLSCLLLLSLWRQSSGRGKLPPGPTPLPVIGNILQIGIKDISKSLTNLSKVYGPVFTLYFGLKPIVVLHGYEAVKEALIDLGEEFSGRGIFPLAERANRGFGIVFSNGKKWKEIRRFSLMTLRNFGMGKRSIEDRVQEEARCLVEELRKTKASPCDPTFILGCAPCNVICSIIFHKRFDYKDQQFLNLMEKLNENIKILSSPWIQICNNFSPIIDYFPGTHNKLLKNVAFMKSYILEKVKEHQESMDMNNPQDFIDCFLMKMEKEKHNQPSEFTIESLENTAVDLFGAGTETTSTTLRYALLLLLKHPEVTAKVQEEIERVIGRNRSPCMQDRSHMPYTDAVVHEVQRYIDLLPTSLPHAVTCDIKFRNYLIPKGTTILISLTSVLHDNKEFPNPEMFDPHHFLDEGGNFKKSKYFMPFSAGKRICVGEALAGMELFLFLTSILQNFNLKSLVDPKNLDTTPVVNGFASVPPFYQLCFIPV
compound,measurement,setting,value
"C[C@]12CC[C@H](O)CC1=CC[C@@H]1[C@@H]2CC[C@@]2(C)[C@H]1CC[C@@]21CC=C(Cn2cc(Cc3ccccc3)nn2)CO1 [ENT-A055, (3S,17R)-5′-[(4-benzyl-1H-1,2,3-triazol-1-yl)methyl]-3′,6′-dihydrospiro[5-androstene-17,2′-pyran]-3-ol]",protection of NIH-3T3-TrkB cells from serum deprivation-induced cell death (CellTox),[1],"significantly reduce cell death levels compared to the serum-free control, comparable to the BDNF action"
same,inhibition for CYP2C9,[2],moderate-to-strong inhibition

# Reference: PMC10568017, “A quest for the stereo-electronic requirements for selective agonism for the neurotrophin receptors TrkA and TrkB in 17-spirocyclic-dehydroepiandrosterone derivatives” (Frontiers in Molecular Neuroscience, 2023)
